Measured values as given in ChEMBL document CHEMBL1201862, “PubChem BioAssay data set” (2004).
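How tested: cells in 96-well plates exposed to compound for 48 hours at five concentrations. GI50 marks 50% less growth.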 Activity calls are given as the source filed them. No stated cut-off is given here; in the data, active = GI50 up to about 1.1 µM and inactive = higher.

What was measured:
Test in all cases: NCI tumour cell line growth inhibition, 48 h
[1] = test system: T47D
[2] = test system: HOP-62
[3] = test system: MOLT-4
[4] = test system: HCT-15
[5] = test system: KM12
[6] = test system: 786-0
[7] = test system: SK-MEL-2
[8] = test system: NCI-H522
[9] = test system: COLO 205
[10] = test system: A549
[11] = test system: SF-295
[12] = test system: CCRF-CEM
[13] = test system: HOP-92
[14] = test system: HCC 2998
[15] = test system: U-251
[16] = test system: OVCAR-3
[17] = test system: PC-3
[18] = test system: OVCAR-8
[19] = test system: IGROV-1
[20] = test system: Malme-3M
[21] = test system: RXF 393
[22] = test system: CAKI-1
[23] = test system: K562
[24] = test system: SK-OV-3
[25] = test system: SK-MEL-28
[26] = test system: OVCAR-5
[27] = test system: NCI-H226
[28] = test system: MCF7
[29] = test system: SNB-19
[30] = test system: RPMI-8226
[31] = test system: MDA-MB-231
[32] = test system: UO-31
[33] = test system: NCI-H23
[34] = test system: EKVX
[35] = test system: SR
[36] = test system: M14
[37] = test system: MDA-MB-435
[38] = test system: HCT-116
[39] = test system: NCI/ADR-RES
[40] = test system: ACHN
[41] = test system: SW-620
[42] = test system: SF-268
[43] = test system: NCI-H460
[44] = test system: SF-539
[45] = test system: DU-145
[46] = test system: UACC-257
[47] = test system: UACC-62
[48] = test system: A498
[49] = test system: BT-549
[50] = test system: MDA-N
[51] = test system: SNB-75
[52] = test system: OVCAR-4
[53] = test system: HT-29
[54] = test system: SK-MEL-5
[55] = test system: TK-10
[56] = test system: SN12C
[57] = test system: HL-60

Compound: S=C(Nc1ccc(Br)cn1)NC12CC3CC(CC(C3)C1)C2
- GI50 [1]: 49.1 µM (inactive)
- GI50 [2]: 23.9 µM (inactive)
- GI50 [3]: 25.8 µM (inactive)
- GI50 [4]: 68.7 µM
- GI50 [5]: > 100 µM (inactive)
- GI50 [6]: 8.05 µM (inactive)
- GI50 [7]: 22.3 µM (inactive)
- GI50 [8]: 11.2 µM (inactive)
- GI50 [9]: 62.2 µM (inactive)
- GI50 [10]: 16.2 µM (inactive)
- GI50 [11]: 17 µM (inactive)
- GI50 [12]: 25.4 µM (inactive)
- GI50 [13]: 7.18 µM (inactive)
- GI50 [14]: 19.4 µM (inactive)
- GI50 [15]: 11.3 µM (inactive)
- GI50 [16]: 46.3 µM (inactive)
- GI50 [17]: 17 µM (inactive)
- GI50 [18]: 7.57 µM (inactive)
- GI50 [19]: 8.59 µM (inactive)
- GI50 [20]: 21.7 µM (inactive)
- GI50 [21]: 15.2 µM (inactive)
- GI50 [22]: 35.9 µM (inactive)
- GI50 [23]: > 100 µM (inactive)
- GI50 [24]: 23.1 µM (inactive)
- GI50 [25]: 39 µM (inactive)
- GI50 [26]: 17.5 µM (inactive)
- GI50 [27]: 20.5 µM (inactive)
- GI50 [28]: 26.3 µM (inactive)
- GI50 [29]: 11 µM (inactive)
- GI50 [30]: 65.2 µM (inactive)
- GI50 [31]: 17.8 µM (inactive)
- GI50 [32]: 28.3 µM (inactive)
- GI50 [33]: 15.3 µM (inactive)
- GI50 [34]: 18.5 µM (inactive)
- GI50 [35]: 36.1 µM (inactive)
- GI50 [36]: 46 µM (inactive)
- GI50 [37]: 92.9 µM (inactive)
- GI50 [38]: 10.7 µM (inactive)
- GI50 [39]: 17.4 µM (inactive)
- GI50 [40]: 13.2 µM (inactive)
- GI50 [41]: 49.2 µM (inactive)
- GI50 [42]: 11.4 µM (inactive)
- GI50 [43]: 28.5 µM (inactive)
- GI50 [44]: 10.1 µM (inactive)
- GI50 [45]: 41.2 µM (inactive)
- GI50 [46]: 25.1 µM (inactive)
- GI50 [47]: 17.5 µM (inactive)
- GI50 [48]: 33 µM (inactive)
- GI50 [49]: > 10 µM (inactive)
- GI50 [50]: 15.8 µM (inactive)
- GI50 [51]: 13.9 µM (inactive)
- GI50 [52]: 17.1 µM (inactive)

Compound: C=CC1CCC[N+]1(CC(=O)OCC)Cc1ccccc1 (stereo not drawn)
- GI50 [1]: > 100 µM (inactive)
- GI50 [2]: > 100 µM (inactive)
- GI50 [3]: > 100 µM (inactive)
- GI50 [4]: > 100 µM
- GI50 [6]: > 100 µM (inactive)
- GI50 [9]: > 100 µM (inactive)
- GI50 [53]: > 100 µM (inactive)
- GI50 [10]: > 100 µM (inactive)
- GI50 [11]: > 100 µM (inactive)
- GI50 [12]: > 100 µM (inactive)
- GI50 [13]: > 100 µM (inactive)
- GI50 [14]: > 100 µM (inactive)
- GI50 [15]: > 100 µM (inactive)
- GI50 [16]: > 100 µM (inactive)
- GI50 [17]: > 100 µM (inactive)
- GI50 [18]: > 100 µM (inactive)
- GI50 [19]: > 100 µM (inactive)
- GI50 [20]: > 100 µM (inactive)
- GI50 [54]: > 100 µM (inactive)
- GI50 [23]: > 100 µM (inactive)
- GI50 [24]: > 100 µM (inactive)
- GI50 [25]: > 100 µM (inactive)
- GI50 [55]: > 100 µM (inactive)
- GI50 [26]: > 100 µM (inactive)
- GI50 [27]: > 100 µM (inactive)
- GI50 [28]: > 100 µM (inactive)
- GI50 [29]: > 100 µM (inactive)
- GI50 [30]: > 100 µM (inactive)
- GI50 [31]: > 100 µM (inactive)
- GI50 [32]: > 100 µM (inactive)
- GI50 [33]: > 100 µM (inactive)
- GI50 [34]: > 100 µM (inactive)
- GI50 [35]: > 100 µM (inactive)
- GI50 [36]: > 100 µM (inactive)
- GI50 [56]: > 100 µM (inactive)
- GI50 [37]: > 100 µM (inactive)
- GI50 [38]: > 100 µM (inactive)
- GI50 [39]: > 100 µM (inactive)
- GI50 [40]: > 100 µM (inactive)
- GI50 [41]: > 100 µM (inactive)
- GI50 [42]: > 100 µM (inactive)
- GI50 [43]: > 100 µM (inactive)
- GI50 [45]: > 100 µM (inactive)
- GI50 [46]: > 100 µM (inactive)
- GI50 [47]: > 100 µM (inactive)
- GI50 [48]: > 100 µM (inactive)
- GI50 [49]: > 100 µM (inactive)
- GI50 [50]: > 100 µM (inactive)
- GI50 [51]: > 100 µM (inactive)
- GI50 [57]: > 100 µM (inactive)
- GI50 [52]: > 100 µM (inactive)
